Test results reported in patent publication US12576099B2, “Ribose-modified cap analog and use thereof” (Beijing Youcare Kechuang Pharmaceutical Technology Co., Ltd., priority 2024, dated 2026).

Experiments:
[1] = Characterization of lipid nanoparticles encapsulating Fluc-mRNA prepared from different cap structures; type: physicochemical; conditions: for Particle size: LNP (YK-009/DSPC/cholesterol/DMG-PEG2000) with Fluc-mRNA transcribed using the named cap analog; for PDI: LNP with Fluc-mRNA transcribed using the named cap analog; for EE: encapsulation efficiency of LNP with Fluc-mRNA transcribed using the named cap analog
Experimental: Cationic lipid YK-009 (Beijing Youcare Kechuang Pharmaceutical Technology Co., Ltd.), DSPC (AVT (Shanghai) Pharmaceutical Technology Co., Ltd.), cholesterol (AVT (Shanghai) Pharmaceutical Technology Co., Ltd.), and DMG-PEG2000 were dissolved in ethanol at a molar ratio of 49:10:39.5:1.5, and the mRNA was diluted in 50 mM citrate buffer (pH=4). The ethanol lipid solution was mixed with the Fluc-mRNA aqueous solution prepared from different cap structures at a volume ratio of 1:3 using a microfluidic device at a flow rate of 10 mL/min to prepare LNPs at a weight ratio of total lipid to mRNA of approximately 15:1.
The resulting liposomes were diluted to 10-fold volume with PBS, and then ultrafiltered with a 300 KDa ultrafiltration tube to remove ethanol. The volume was then fixed to a certain volume with PBS. Finally, the LNPs were filtered through a 0.2 μm sterile filter to obtain an LNP preparation encapsulating Fluc-mRNA using YK-009/DSPC/cholesterol/DMG-PEG2000 (at a molar ratio of 49:10:39.5:1.5).
The particle size and polydispersity index (PDI) were determined by dynamic light scattering using a Malvern laser particle size analyzer. 10 μL of the liposome solution was taken, diluted to 1 mL with RNase-free deionized water, and added to a sample pool. Each sample was measured in triplicate. The measurement conditions were: a scattering angle of 90° and a temperature of 25° C. The encapsulation efficiency of LNPs was determined using the Quant-iT RiboGreen RNA Quantification Kit (Thermo Fisher Scientific, UK) according to the manufacturer's instructions.

HEK293T cells = assay: Translation efficiency of different capped luciferase mRNAs; type: cell-based; conditions: for Relative fluorescence intensity: HEK293T, 0.5 μg mRNA per well, 24 hours, proportional to translation efficiency; for Multiple of m6A (relative fluorescence intensity): relative to m6A
Experimental: • (1) HEK293T cells were cultured in DMEM medium containing 10% FBS and penicillin/streptomycin at 37° C. with 5% CO2. • (2)Cells in the culture dish were digested and counted, then spread in a 96-well plate at 10,000 cells per well, and cultured overnight until the cells adhered to the wall. • (3) When the cell density reached approximately 80%, transfection was performed by adding 0.5 μg of mRNA sample and Lipofectamine MessengerMAX Transfection Reagent (Invitrogen) per well according to the manufacturer's instructions. • (4) After the transfected cells were cultured at 37° C. with 5% CO2 for 24 hours, the growth medium was removed from the cells to be tested, and the cells were rinsed with PBS. After centrifugation to remove PBS, 50 μL of 1× lysis buffer was added. The cells and all liquid were transferred to a microcentrifuge tube and centrifuged. • (5) 20 μL of sample was taken and added to 100 μL of Dual-Lumi™ II Luciferase Assay Reagent pre-equilibrated to room temperature, and mixed appropriately. • (6) The mixture was incubated at room temperature (approximately 25° C.) for 5 minutes to stabilize the luminescence signal. Chemiluminescence was detected using a multifunctional microplate reader with a function for detecting chemiluminescence, and the data were recorded.
The relative fluorescence intensity is proportional to the translation efficiency of mRNA.

DCP2 enzyme = biological target: T1, DCP2 enzyme (Schizosaccharomyces pombe, UniProt O13828); assay: Decapping enzyme stability test; type: biochemical; conditions: for Decapping rate (%) of DCP2 enzyme: 50 U mRNA decapping enzyme, 37° C., 45 minutes
T1 construct: purchased New England Biolabs
T1 sequence (O13828 1-243 limits assumed): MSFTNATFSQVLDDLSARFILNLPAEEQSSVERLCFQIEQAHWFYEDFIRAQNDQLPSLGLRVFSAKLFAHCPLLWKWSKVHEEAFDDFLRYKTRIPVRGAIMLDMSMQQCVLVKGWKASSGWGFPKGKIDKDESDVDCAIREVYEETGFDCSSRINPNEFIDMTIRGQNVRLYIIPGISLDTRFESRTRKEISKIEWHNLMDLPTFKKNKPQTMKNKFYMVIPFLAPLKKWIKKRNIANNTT
T1 sequence (Q9P805 1-127 partner): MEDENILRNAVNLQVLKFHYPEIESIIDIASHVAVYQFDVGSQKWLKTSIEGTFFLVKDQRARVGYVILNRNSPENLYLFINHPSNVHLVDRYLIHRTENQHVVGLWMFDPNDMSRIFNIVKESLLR
T1 sequence (Q10108 155-180 partner limits assumed): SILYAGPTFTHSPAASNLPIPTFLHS
Experimental: […] of RNA purified by polyacrylamide gel electrophoresis (PAGE) was subjected to an enzymatic reaction with 50 U of mRNA decapping enzyme (New England Biolabs) and 1×MDE buffer at 37° C. for 45 minutes. The enzymatic reactants were subjected to PAGE and stained with SYBR Green II (Lonza), followed by observation of the post-electrophoresis gel image on a Typhoon FLA 7000 (GE Healthcare) instrument. The electrophoresis band intensity ratio of RNA capping to RNA decapping was counted using ImageQuant (GE Healthcare) software, and the decapping rate of the decapping enzyme was calculated.

BALB/C mice = assay: In vivo imaging of Fluc-mRNA LNP expression in mice
Experimental: The LNP preparation containing 5 μg of cap analog-transcribed Fluc-mRNA was intramuscularly injected into female BALB/C mice aged 4 to 6 weeks and weighing 17 to 19 g. At specific time points after administration (6 hours, 12 hours, 24 hours, 48 hours, 96 hours, and 168 hours), the mice were intraperitoneally injected with fluorescence imaging substrate. The mice were then allowed to move freely for 5 minutes, followed by detection of the total radiation intensity of the protein expressed by LNP-carrying mRNA in the mice using an IVIS Spectrum small-animal in vivo imaging system (corresponding to the amount of protein expression).
In the in vivo imaging experiments in mice, the multiple of the total radiation intensity for each group of mice relative to the m6A group is shown in Table 8 (where the total radiation intensity is represented as the given value×10^8 p/s).

[2] = 6 h, 5 μg Fluc-mRNA LNP intramuscular, mice
[3] = 12 h, 5 μg Fluc-mRNA LNP intramuscular, mice
[4] = 24 h, 5 μg Fluc-mRNA LNP intramuscular, mice
[5] = 48 h, 5 μg Fluc-mRNA LNP intramuscular, mice
[6] = 96 h, 5 μg Fluc-mRNA LNP intramuscular, mice
[7] = 168 h, 5 μg Fluc-mRNA LNP intramuscular, mice

SMILES	Particle size [1]	PDI [1]	EE [1]	Relative fluorescence intensity (HEK293T cells)	Multiple of m6A (relative fluorescence intensity) (HEK293T cells)	Decapping rate (%) of DCP2 enzyme (DCP2 enzyme)	Decrease relative to N-7113 (decapping rate) (DCP2 enzyme)	Multiple of total radiation intensity relative to m6A (BALB/C mice; 6 h)	Total radiation intensity (BALB/C mice; [2])	Multiple of total radiation intensity relative to m6A (BALB/C mice; 12 h)	Total radiation intensity (BALB/C mice; [3])	Multiple of total radiation intensity relative to m6A (BALB/C mice; 24 h)	Total radiation intensity (BALB/C mice; [4])	Multiple of total radiation intensity relative to m6A (BALB/C mice; 48 h)	Total radiation intensity (BALB/C mice; [5])	Multiple of total radiation intensity relative to m6A (BALB/C mice; 96 h)	Total radiation intensity (BALB/C mice; [6])	Total radiation intensity (BALB/C mice; [7])	Total radiation intensity (BALB/C mice; at 12 hours)	Total radiation intensity (BALB/C mice; at 48 hours)
CCO[C@@H]1[C@H](OP(=O)(O)OC[C@H]2O[C@@H](n3cnc4c(=O)[nH]c(N)nc43)[C@H](O)[C@@H]2O)[C@@H](COP(=O)(O)OP(=O)(O)OP(=O)(O)OC[C@H]2O[C@@H]([n+]3cn(C)c4c(=O)[nH]c(N)nc43)[C@H](O)[C@@H]2O)O[C@H]1n1cnc2c(N)ncnc21 [CAP-2′O-ethyl, reference compound]	81.34 nm	0.035	96.3%	1.13	3.0	28.3%	15.5%	2.3	5.41 ×108 p/s	2.3	4.80 ×108 p/s	2.6	1.73 ×108 p/s	1.1	0.57 ×108 p/s	2.4	0.09 ×108 p/s	0.02 ×108 p/s		
CNc1ncnc2c1ncn2[C@@H]1O[C@H](COP(=O)(O)OP(=O)(O)OP(=O)(O)OC[C@H]2O[C@@H]([n+]3cn(C)c4c(=O)[nH]c(N)nc43)[C@H](O)[C@@H]2O)[C@@H](OP(=O)(O)OC[C@H]2O[C@@H](n3cnc4c(=O)[nH]c(N)nc43)[C@H](O)[C@@H]2O)[C@H]1OC [m6A, reference compound]	75.76 nm	0.047	93.8%	0.38	1.0	33.8%	10.0%	1.0	2.35 ×108 p/s	1.0	2.12 ×108 p/s	1.0	0.66 ×108 p/s	1.0	0.52 ×108 p/s	1.0	0.08 ×108 p/s	0.02 ×108 p/s	2.12 ×10^8 p/s	0.52 ×10^8 p/s
COC[C@H]1[C@@H](O)[C@H]([n+]2cn(C)c3c(=O)[nH]c(N)nc32)O[C@@H]1COP(=O)(O)OP(=O)(O)OP(=O)(O)OC[C@H]1O[C@@H](n2cnc3c(N)ncnc32)[C@H](OC)[C@@H]1OP(=O)(O)OC[C@H]1O[C@@H](n2cnc3c(=O)[nH]c(N)nc32)[C@H](O)[C@@H]1O [HN3002, reference compound]	75.35 nm	0.058	95.1%		3.0	23.3%	20.5%													
CO[C@@H]1[C@H](OP(=O)(O)OC[C@H]2O[C@@H](n3cnc4c(=O)[nH]c(N)nc43)[C@H](O)[C@@H]2O)[C@@H](COP(=O)(O)OP(=O)(O)OP(=O)(O)OC[C@H]2O[C@@H]([n+]3cn(C)c4c(=O)[nH]c(N)nc43)[C@H](O)[C@@H]2O)O[C@H]1n1cnc2c(N)ncnc21 [N-7113, reference compound]	87.45 nm	0.078	96.1%	1.00	2.6	43.8%	0.0%	2.2	5.10 ×108 p/s	2.0	4.33 ×108 p/s	2.3	1.49 ×108 p/s	0.9	0.49 ×108 p/s	2.4	0.05 ×108 p/s	0.02 ×108 p/s	4.33 ×10^8 p/s	0.49 ×10^8 p/s
